Data from patent US4564612A, “Condensed, seven-membered ring compounds and their use” (Takeda Chemical Industries, Ltd., priority 1983, dated 1986).
Where a name gives a salt, the structure may show the parent alone. Read-outs that look alike come from different tables or passages of the source.

What was measured:
[1] = test system: hypertensive reaction by angiotensin I; experiment: Effect against hypertensive activity of angiotensin I in rats, intravenous administration; format: in vivo, rats (Sprague-Dawley); conditions: 300 μg/kg i.v., male rats
Description: (§1) Effect of the Compounds of the Present Invention against Hypertensive Activity of Angiotensin I.
(§2) Male rats (Sprague-Dawley) weighing 300 to 400 g which were fed under free access to drinking water and feed were used as experimental animals. The rats were anesthetized with intraperitoneal administration of pentobarbital sodium (50 mg/kg) on the day before the test day and a polyethylene tube was inserted into each of the femoral artery for measurement of blood pressure and the femoral vein for injection of angiotensin I and II. And the tubes were fixed.
On the test day, an average blood pressure in the control phase was measured by an electric hemodynamometer (MPU-0.5-290-0-III model manufactured by NEC-Sanei, Japan) and recorded by a polygraph (NEC-Sanei, Type 365 or Nippon Kohden Type RM-45, and thereafter angiotensin I and then angiotensin II were injected through the femoral vein at a dose of 300 ng/kg and 100 ng/kg, respectively, to measure the hypertensive activity. […] In calculating the percent inhibition to the hypertensive activity of angiotensin I, the percent inhibitory value was corrected based on the variation with time in the hypertensive reaction by antiotensin II.

[2] = target: T1, Angiotensin I Converting Enzyme (ACE) (Oryctolagus cuniculus, UniProt P12822); experiment: Inhibition of Angiotensin I Converting Enzyme (ACE), HHL substrate, modified Cushman method; format: biochemical; conditions: read-out: ACE inhibitory activity (%); for inhibition at 1 µM: concentration 1 μM
T1 sequence (P12822 34-1310): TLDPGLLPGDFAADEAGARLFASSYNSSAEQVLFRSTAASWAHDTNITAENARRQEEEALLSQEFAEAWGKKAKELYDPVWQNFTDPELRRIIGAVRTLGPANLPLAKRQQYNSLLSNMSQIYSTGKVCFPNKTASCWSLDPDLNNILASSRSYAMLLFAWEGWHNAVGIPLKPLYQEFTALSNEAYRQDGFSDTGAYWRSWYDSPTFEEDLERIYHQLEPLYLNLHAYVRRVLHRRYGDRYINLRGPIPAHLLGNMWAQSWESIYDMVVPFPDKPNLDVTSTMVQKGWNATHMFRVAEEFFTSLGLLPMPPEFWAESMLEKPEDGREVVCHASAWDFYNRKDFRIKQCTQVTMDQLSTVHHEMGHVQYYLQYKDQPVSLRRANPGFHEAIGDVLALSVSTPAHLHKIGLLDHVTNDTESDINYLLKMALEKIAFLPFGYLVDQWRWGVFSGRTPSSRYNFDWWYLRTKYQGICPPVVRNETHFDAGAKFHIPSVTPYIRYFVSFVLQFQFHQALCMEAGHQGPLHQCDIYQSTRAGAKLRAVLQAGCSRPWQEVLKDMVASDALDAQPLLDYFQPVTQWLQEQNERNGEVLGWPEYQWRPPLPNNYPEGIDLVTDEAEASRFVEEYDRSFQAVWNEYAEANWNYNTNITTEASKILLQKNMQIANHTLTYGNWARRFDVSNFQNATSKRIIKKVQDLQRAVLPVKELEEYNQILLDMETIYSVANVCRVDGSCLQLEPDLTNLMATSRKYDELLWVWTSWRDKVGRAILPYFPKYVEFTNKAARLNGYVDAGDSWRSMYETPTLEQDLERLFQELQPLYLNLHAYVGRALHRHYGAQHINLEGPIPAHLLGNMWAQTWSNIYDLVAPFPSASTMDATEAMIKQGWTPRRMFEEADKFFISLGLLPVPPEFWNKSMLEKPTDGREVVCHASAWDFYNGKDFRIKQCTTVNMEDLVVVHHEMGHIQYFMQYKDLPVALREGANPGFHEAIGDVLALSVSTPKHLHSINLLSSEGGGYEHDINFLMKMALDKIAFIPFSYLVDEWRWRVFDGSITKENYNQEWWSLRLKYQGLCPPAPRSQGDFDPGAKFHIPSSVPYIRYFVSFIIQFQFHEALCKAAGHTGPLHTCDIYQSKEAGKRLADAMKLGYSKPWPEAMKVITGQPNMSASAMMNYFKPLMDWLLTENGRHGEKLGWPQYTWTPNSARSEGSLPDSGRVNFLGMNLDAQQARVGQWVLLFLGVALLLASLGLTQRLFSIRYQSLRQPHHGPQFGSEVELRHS
Description: Experiment on Inhibition of Angiotensin I Converting Enzyme (ACE) by the Compounds of this Invention. […] That is, using hippuryl-L-histidyl-L-leucine (HHL) as the substrate, the ACE inhibitory activity was determined in terms of percent inhibition on the amount of hippuric acid produced by ACE when the compound of the present invention was added. […] In this experiment, a borate-HCl buffer solution containing dimethylsulfoxide at a concentration equal to that of the test solution was used as a control. After warming the solution at 37° C. for 1 hour, 150 μl of 1N hydrochloric acid was added to the solution to terminate the reaction. After 0.8 ml of ethyl acetate was added the solution was centrifuged at 11500 rpm for 2 minutes. A 0.5 ml aliquot was separated from the ethyl acetate layer and dried at a temperature below 40° C. under nitrogen gas streams. The residue was mixed thoroughly with 4.5 ml of distilled water, and the mixture was subjected to colorimetry at a wavelength of 228 nm.

[3] = test system: hypertensive reaction by angiotensin I; experiment: Effect against hypertensive activity of angiotensin I in rats, oral administration; format: in vivo, rats (Sprague-Dawley); conditions: male rats
Description: as §1
as §2, with “250” for “300”, “350” for “400”
On the test day, an average blood pressure in the control phase was measured by an electric hemodynamometer (MPU-0.5-290-0-III model manufactured by NEC-Sanei, Japan) and recorded by a polygraph (NEC-Sanei, Type 365 or Nippon Kohden Type RM-45), and thereafter angiotensin I and then angiotensin II were injected through the femoral vein at a dose of 300 ng/kg and 100 ng/kg, respectively, to measure the hypertensive activity. Then, 3 and 10 mg/kg of the compound of the present invention were administered orally as an aqueous solution or an aqueous gum arabic suspension, and 20, 60 and 120 minutes after the administration, angiotensin I and II were injected repeatedly to trace hypertensive reactions. In calculating the percent inhibition to the hypertensive activity of angiotensin I, the percent inhibitory value was corrected based on the variation with time in the hypertensive reaction by angiotensin II.

[4] = 10 mg/kg orally, after 120 min.

CCOC(=O)[C@H](CCCCCCN)N[C@H]1CSc2ccccc2N(CC(=O)O)C1=O [C2 H5]
Inhibition against hypertensive reaction by angiotensin I (%) ([1]; after 5 min): 97% | Inhibition against hypertensive reaction by angiotensin I (%) ([1]; after 10 min): 97% | Inhibition against hypertensive reaction by angiotensin I (%) ([1]; after 30 min): 100% | Inhibition against hypertensive reaction by angiotensin I (%) ([1]; after 60 min): 96% | Inhibition against hypertensive reaction by angiotensin I (%) ([1]; after 90 min): 87% | Inhibition against hypertensive reaction by angiotensin I (%) ([1]; after 120 min): 73%

CCOC(=O)C(CCc1ccccc1)N[C@H]1CSc2ccccc2N(CC(=O)O)C1=O (some centres unmarked) [Example 6]
inhibition at 0.1 µM ([2]; concentration 0.1 μM): 48% | inhibition at 1 µM [2]: 85%

O=C(O)CN1C(=O)[C@@H](N[C@@H](CCC2CCCCC2)C(=O)O)CSc2ccccc21 [Example 50, 3(R)-[1(S)-carboxy-3-cyclohexylpropyl]amino-4-oxo-2,3,4,5-tetrahydro-1,5-benzothiazepine-5-acetic acid]
inhibition at 0.01 µM ([2]; concentration 0.01 μM): 77% | inhibition at 0.1 µM ([2]; concentration 0.1 μM): 96%

NCCCC[C@H](N[C@H]1CSc2ccccc2N(CC(=O)O)C1=O)C(=O)O [Example 60, 3(R)-[5-amino-1(S)-carboxypentyl]amino-4-oxo-2,3,4,5-tetrahydro-1,5-benzothiazepine-5-acetic acid]
inhibition at 0.1 µM ([2]; concentration 0.1 μM): 82% | inhibition at 1 µM [2]: 98%

NCCCCCC[C@H](N[C@H]1CSc2ccccc2N(CC(=O)O)C1=O)C(=O)O [Example 73, 3(R)-[7-amino-1(S)-carboxyheptyl]amino-4-oxo-2,3,4,5-tetrahydro-1,5-benzothiazepine-5-acetic acid]
inhibition at 0.1 µM ([2]; concentration 0.1 μM): 96% | inhibition at 1 µM [2]: 100%

NCCCCCC[C@H](N[C@H]1CSc2ccccc2N(CC(=O)O)C1=O)C(=O)O [H]
Inhibition against hypertensive reaction by angiotensin I (%) ([1]; after 5 min): 100% | Inhibition against hypertensive reaction by angiotensin I (%) ([1]; after 10 min): 97% | Inhibition against hypertensive reaction by angiotensin I (%) ([1]; after 30 min): 97% | Inhibition against hypertensive reaction by angiotensin I (%) ([1]; after 60 min): 91% | Inhibition against hypertensive reaction by angiotensin I (%) ([1]; after 90 min): 78% | Inhibition against hypertensive reaction by angiotensin I (%) ([1]; after 120 min): 48%

O=C(O)CN1C(=O)[C@@H](N[C@@H](CCCCNC2CCCCC2)C(=O)O)CSc2ccccc21 [Example 69, 3(R)-[1(S)-carboxy-5-cyclohexylaminopentyl]amino-4-oxo-2,3,4,5-tetrahydro-1,5-benzothiazepine-5-acetic acid]
inhibition at 0.1 µM ([2]; concentration 0.1 μM): 93% | inhibition at 1 µM [2]: 100%

CCOC(=O)[C@H](CCc1ccccc1)N[C@H]1CSc2ccccc2N(CC(=O)O)C1=O.Cl [Example 7, 3(R)-[1(S)-ethoxycarbonyl-3-phenylpropyl]amino-4-oxo-2,3,4,5-tetrahydro-1,5-benzothiazepine-5-acetic acid hydrochloride]
inhibition at 0.1 µM ([2]; concentration 0.1 μM): 53% | inhibition at 1 µM [2]: 86% | Inhibition against hypertensive reaction by angiotensin I (%) ([3]; 3 mg/kg orally, after 20 min.): 85% | Inhibition against hypertensive reaction by angiotensin I (%) ([3]; 3 mg/kg orally, after 60 min.): 51% | Inhibition against hypertensive reaction by angiotensin I (%) ([3]; 3 mg/kg orally, after 120 min.): 27% | Inhibition against hypertensive reaction by angiotensin I (%) ([3]; 10 mg/kg orally, after 20 min.): 85% | Inhibition against hypertensive reaction by angiotensin I (%) ([3]; 10 mg/kg orally, after 60 min.): 68% | Inhibition against hypertensive reaction by angiotensin I (%) [3, 4]: 51%

CCOC(=O)[C@H](CCC1CCCCC1)N[C@H]1CSc2ccccc2N(CC(=O)O)C1=O.Cl [Example 9, 3(R)-[1(S)-ethoxycarbonyl-3-cyclohexylpropyl]amino-4-oxo-2,3,4,5-tetrahydro-1,5-benzothiazepine-5-acetic acid hydrochloride]
inhibition at 0.1 µM ([2]; concentration 0.1 μM): 83% | inhibition at 1 µM [2]: 95% | Inhibition against hypertensive reaction by angiotensin I (%) ([3]; 3 mg/kg orally, after 20 min.): 66% | Inhibition against hypertensive reaction by angiotensin I (%) ([3]; 3 mg/kg orally, after 60 min.): 36% | Inhibition against hypertensive reaction by angiotensin I (%) ([3]; 3 mg/kg orally, after 120 min.): 12% | Inhibition against hypertensive reaction by angiotensin I (%) ([3]; 10 mg/kg orally, after 20 min.): 92% | Inhibition against hypertensive reaction by angiotensin I (%) ([3]; 10 mg/kg orally, after 60 min.): 72% | Inhibition against hypertensive reaction by angiotensin I (%) [3, 4]: 68%

CCOC(=O)[C@@H](CCc1ccccc1)N[C@H]1CSc2ccccc2N(CC(=O)O)C1=O [Example 5, 3(R)-[1(R)-ethoxycarbonyl-3-phenylpropyl]amino-4-oxo-2,3,4,5-tetrahydro-1,5-benzothiazepine-5-acetic acid hydrochloride]
inhibition at 0.1 µM ([2]; concentration 0.1 μM): 40% | inhibition at 1 µM [2]: 84%

O=C(O)CN1C(=O)[C@@H](N[C@H](CCc2ccccc2)C(=O)O)CSc2ccccc21 [Example 12, 3(R)-[1(R)-carboxy-3-phenylpropyl]amino-4-2,3,4,5-tetrahydro-1,5-benzothiazepine-5-acetic acid disodium salt]
inhibition at 1 µM [2]: 50% | inhibition at 10 µM ([2]; concentration 10 μM): 86%

O=C(O)CN1C(=O)[C@@H](N[C@@H](CCc2ccccc2)C(=O)O)CSc2ccccc21 [Example 13, 3(R)-[1(S)-carboxy-3-phenylpropyl]amino-4-oxo-2,3,4,5-tetrahydro-1,5-benzothiazepine-5-acetic acid monosodium salt]
inhibition at 0.01 µM [2]: 46% | inhibition at 0.1 µM [2]: 91%
